Legend:
Type in all cases: in vivo
[1] = tested on: Velvetleaf (Abutilon theophrasti, ABUTH); test: Example 52 greenhouse herbicidal inhibition, acifluorfen sodium compositions (Table 52); details: evaluated 10 days after application
Description: (§1) Seeds of the plant species indicated were planted in 85 mm square pots in a soil mix which was previously steam sterilized and prefertilized with a 13-13-14 NPK slow release fertilizer at a rate of 3.6 kg/m^3. The pots were placed in a greenhouse with sub-irrigation. About one week after emergence, seedlings were thinned as needed, including removal of any unhealthy or abnormal plants, to create a uniform series of test pots.
(§2) The plants were maintained for the duration of the test in the greenhouse where they received a minimum of 14 hours of light per day. If natural light was insufficient to achieve the daily requirement, artificial light with an intensity of approximately 475 microeinsteins was used to make up the difference. Exposure temperatures were not precisely controlled but averaged about 27° C. during the day and about 18° C. during the night. Plants were sub-irrigated throughout the test to ensure adequate soil moisture levels.
(§3) A set of pots was left untreated as a reference against which effects of the treatments could later be evaluated.
(§4) Application of glyphosate compositions was made by spraying with a track sprayer fitted with a 9501E nozzle calibrated to deliver a spray volume of 93 liters per hectare (l/ha) at a pressure of 166 kilopascals (kPa). After treatment, pots were returned to the greenhouse until ready for evaluation.
(§5) For evaluation of herbicidal effectiveness, all plants in the test were examined by a single practiced technician, who recorded percent inhibition, a visual measurement of the effectiveness of each treatment by comparison with untreated plants.
(§6) Velvetleaf (Abutilon theophrasti, ABUTH), Japanese millet (Echinochloa crus-galli, ECHCF) and prickly sida (Sida spinosa, SIDSP) plants were grown and treated by the standard procedures given above. Applications of spray compositions were made 15 days after planting ABUTH, 9 days after planting ECHCF and 22 days after planting SIDSP. Evaluation of herbicidal inhibition was done 10 days after application.

[2] = tested on: Japanese millet (Echinochloa crus-galli, ECHCF); test: as above; details: evaluated 10 days after application
Description: as §1, §2, §3, §4, §5, §6

[3] = tested on: Prickly sida (Sida spinosa, SIDSP); test: as above; details: evaluated 10 days after application
Description: as §1, §2, §3, §4, §5, §6

[4] = tested on: Japanese millet (Echinochloa crus-galli, ECHCF); test: Example 53 greenhouse herbicidal inhibition, asulam compositions (Table 53); details: asulam rate 200 g a.i./ha; evaluated 14 days after application
Description: as §1
(§7) The plants were maintained for the duration of the test in the greenhouse where they received a minimum of 14 hours of light per day. If natural light was insufficient to achieve the daily requirement, artificial light with an intensity of approximately 475 microeinsteins was used to make up the difference. […]
as §3, §4
(§8) For evaluation of herbicidal effectiveness, all plants in the test were examined by a single practiced technician, who recorded percent inhibition, a visual measurement of the effectiveness of each treatment by comparison with untreated plants. […]

[5] = tested on: Prickly sida (Sida spinosa, SIDSP); test: as above; details: asulam rate 200 g a.i./ha; evaluated 14 days after application
Description: as §1, §7, §3, §4, §8

[6] = tested on: Velvetleaf (Abutilon theophrasti, ABUTH); test: Example 54 greenhouse herbicidal inhibition, dicamba sodium compositions (Table 54); details: evaluated 17 days after application
Description: as §1, §2, §3, §4, §5
as §6, with “14” for “15”, “8” for “9”, “21” for “22”, “17” for “10”

[7] = tested on: Japanese millet (Echinochloa crus-galli, ECHCF); test: as above; details: evaluated 17 days after application
Description: as §1, §2, §3, §4, §5
as §6, with “14” for “15”, “8” for “9”, “21” for “22”, “17” for “10”

[8] = tested on: Prickly sida (Sida spinosa, SIDSP); test: as above; details: evaluated 17 days after application
Description: as §1, §2, §3, §4, §5
as §6, with “14” for “15”, “8” for “9”, “21” for “22”, “17” for “10”

[9] = tested on: Japanese millet (Echinochloa crus-galli, ECHCF); test: Example 57 greenhouse herbicidal inhibition, fluazifop-p-butyl compositions (Table 57); details: fluazifop-p rate 5 g a.i./ha; evaluation 10 days after application
Description: as §1, §2, §3
[…] After treatment, pots were returned to the greenhouse until ready for evaluation.
as §8

[10] = tested on: Velvetleaf (Abutilon theophrasti, ABUTH); test: Example 51 greenhouse herbicidal inhibition, paraquat dichloride compositions (Table 51); details: evaluated 12 days after application
Description: as §1, §2, §3, §4, §5
as §6, with “14” for “15”, “8” for “9”, “21” for “22”, “12” for “10”

[11] = tested on: Japanese millet (Echinochloa crus-galli, ECHCF); test: as above; details: evaluated 12 days after application
Description: as §1, §2, §3, §4, §5
as §6, with “14” for “15”, “8” for “9”, “21” for “22”, “12” for “10”

[12] = tested on: Prickly sida (Sida spinosa, SIDSP); test: as above; details: evaluated 12 days after application
Description: as §1, §2, §3, §4, §5
as §6, with “14” for “15”, “8” for “9”, “21” for “22”, “12” for “10”

In the case of `O=C(O)c1cc(Oc2ccc(C(F)(F)F)cc2Cl)ccc1[N+](=O)[O-]` [Acifluorfen], the “% Inhibition ABUTH” value ([1]; acifluorfen rate 25 g a.i./ha) is reported as 20%, the “% Inhibition ABUTH” value ([1]; acifluorfen rate 50 g a.i./ha) is reported as 32% and the “% Inhibition ABUTH” value ([1]; acifluorfen rate 100 g a.i./ha) is reported as 52%. The “% Inhibition ABUTH” value ([1]; acifluorfen rate 200 g a.i./ha) was 62%, the “% Inhibition ECHCF” value ([2]; acifluorfen rate 25 g a.i./ha) was 2% and the “% Inhibition ECHCF” value ([2]; acifluorfen rate 50 g a.i./ha) was 7%. The “% Inhibition ECHCF” value ([2]; acifluorfen rate 100 g a.i./ha) was 18%, the “% Inhibition ECHCF” value ([2]; acifluorfen rate 200 g a.i./ha) was 35% and the “% Inhibition SIDSP” value ([3]; acifluorfen rate 25 g a.i./ha) was 15%. For the same compound, the “% Inhibition SIDSP” value ([3]; acifluorfen rate 50 g a.i./ha) was 17%, the “% Inhibition SIDSP” value ([3]; acifluorfen rate 100 g a.i./ha) was 35% and the “% Inhibition SIDSP” value ([3]; acifluorfen rate 200 g a.i./ha) was 40%.
`COC(=O)NS(=O)(=O)c1ccc(N)cc1` [Asulam] was tested, and the “% Inhibition ECHCF” value [4] was 12% and the “% Inhibition SIDSP” value [5] was 0%.
`COc1c(Cl)ccc(Cl)c1C(=O)O` [Dicamba] was tested, and the “% Inhibition ABUTH” value ([6]; dicamba rate 25 g a.i./ha) was 47%, the “% Inhibition ABUTH” value ([6]; dicamba rate 50 g a.i./ha) was 63% and the “% Inhibition ABUTH” value ([6]; dicamba rate 100 g a.i./ha) was 82%. The “% Inhibition ABUTH” value ([6]; dicamba rate 200 g a.i./ha) was 93%, the “% Inhibition ECHCF” value ([7]; dicamba rate 25 g a.i./ha) was 0% and the “% Inhibition ECHCF” value ([7]; dicamba rate 50 g a.i./ha) was 0%. For the same compound, the “% Inhibition ECHCF” value ([7]; dicamba rate 100 g a.i./ha) was 0%, the “% Inhibition ECHCF” value ([7]; dicamba rate 200 g a.i./ha) was 5% and the “% Inhibition SDSP” value ([8]; dicamba rate 25 g a.i./ha) was 30%. For the same compound, the “% Inhibition SDSP” value ([8]; dicamba rate 50 g a.i./ha) was 40%, the “% Inhibition SDSP” value ([8]; dicamba rate 100 g a.i./ha) was 50% and the “% Inhibition SDSP” value ([8]; dicamba rate 200 g a.i./ha) was 58%.
`CCCCOC(=O)[C@@H](C)Oc1ccc(Oc2ccc(C(F)(F)F)cn2)cc1` [Fluazifop-p-butyl (technical)] was tested, and the “% Inhibition ECHCF” value [9] was 3%.
With `C[n+]1ccc(-c2cc[n+](C)cc2)cc1` [Paraquat dichloride] the “% Inhibition ABUTH” value ([10]; paraquat rate 25 g a.i./ha) was 50%, the “% Inhibition ABUTH” value ([10]; paraquat rate 50 g a.i./ha) was 57% and the “% Inhibition ABUTH” value ([10]; paraquat rate 100 g a.i./ha) was 73%. The “% Inhibition ABUTH” value ([10]; paraquat rate 200 g a.i./ha) was 85%, the “% Inhibition ECHCF” value ([11]; paraquat rate 25 g a.i./ha) was 83% and the “% Inhibition ECHCF” value ([11]; paraquat rate 50 g a.i./ha) was 78%. The “% Inhibition ECHCF” value ([11]; paraquat rate 100 g a.i./ha) was 84%, the “% Inhibition ECHCF” value ([11]; paraquat rate 200 g a.i./ha) was 95% and the “% Inhibition SIDSP” value ([12]; paraquat rate 25 g a.i./ha) was 55%. For the same compound, the “% Inhibition SIDSP” value ([12]; paraquat rate 50 g a.i./ha) was 60%, the “% Inhibition SIDSP” value ([12]; paraquat rate 100 g a.i./ha) was 69% and the “% Inhibition SIDSP” value ([12]; paraquat rate 200 g a.i./ha) was 99%.
